Assay results as given in ChEMBL document CHEMBL4311992, “Discovery of 3-(((9H-purin-6-yl)amino)methyl)-4,6-dimethylpyridin-2(1H)-one derivatives as novel tubulin polymerization inhibitors for treatment of cancer” (Eur J Med Chem, 2019).

How the values were obtained:
[1] = system: HCT-116; experiment: Inhibition of colony formation in human HCT116 cells at 50 nM after 14 days by crystal violet staining-based microscopic analysis; assay type: functional; details: HCT-116, 336 h
[2] = system: CT26; experiment: Antiproliferative activity against mouse CT26 cells assessed as reduction in cell viability after 72 hrs by MTT assay; assay type: functional, cell-based; details: CT26, 72 h
[3] = biological target: Tribbles homolog 2 (Homo sapiens) (UniProt Q92519); experiment: Inhibition of recombinant full-length human TRB2 assessed as residual activity at 10 uM using RRRFRPASPLRGPPK as substrate measured after 120 mins in presence of [gamma33P]ATP by scintillation counting method
[4] = system: Angiopoietin-1 receptor (Homo sapiens), Q02763 [Q939H,Q940H,R849W]; experiment: Inhibition of human Tie2 Q939H/Q940H/R849W mutant (771 to end residues) using EFPIYDFLPAKKK as substrate measured after 40 mins in presence of [gamma33P]ATP by scintillation counting method; set-up: scale not given: the % may be the effect or the level left
[5] = biological target: cGMP-dependent protein kinase 1 (Homo sapiens) (UniProt Q13976); experiment: Inhibition of recombinant full-length human PKG1alpha assessed as residual activity at 10 uM using RRRLSFAEPG as substrate measured after 40 mins in presence of [gamma33P]ATP by scintillation counting method
[6] = biological target: Serine/threonine-protein kinase Nek1 (Homo sapiens) (UniProt Q96PY6); experiment: Inhibition of recombinant human NEK1 (1 to 505 residues) assessed as residual activity at 10 uM using RLGRDKYKTLRQIRQ as substrate measured after 40 mins in presence of [gamma33P]ATP by scintillation counting method
[7] = biological target: FKBP12A/mTOR (Homo sapiens) (UniProt P62942+P42345); experiment: Inhibition of recombinant full-length human mTOR/FKBP12 assessed as residual activity at 10 uM measured after 40 mins in presence of [gamma33P]ATP by scintillation counting method; assay type: protein-complex assay
[8] = biological target: Mitogen-activated protein kinase kinase kinase 2 (Homo sapiens) (UniProt Q9Y2U5); experiment: Inhibition of recombinant full-length human MEKK2 assessed as residual activity at 10 uM using myelin basic protein as substrate measured after 40 mins in presence of [gamma33P]ATP by scintillation counting method
[9] = organism: Homo sapiens; experiment: Inhibition of recombinant human MARK1 T20S mutant (2 to end residues) assessed as residual activity at 10 uM using KKKVSRSGLYRSPSMPENLNRPR as substrate measured after 40 mins in presence of [gamma33P]ATP by scintillation counting method
[10] = biological target: Tyrosine-protein kinase JAK1 (Homo sapiens) (UniProt P23458); experiment: Inhibition of recombinant human JAK1 (866 to end residues) assessed as residual activity at 10 uM using GEEPLYWSFPAKKK as substrate measured after 40 mins in presence of [gamma33P]ATP by scintillation counting method
[11] = biological target: Insulin receptor (Homo sapiens) (UniProt P06213); experiment: Inhibition of recombinant human activated IR (1005 to 1310 residues) assessed as residual activity at 10 uM using KKKSPGEYVNIEFG as substrate measured after 40 mins in presence of [gamma33P]ATP by scintillation counting method
[12] = organism: Mus musculus; experiment: Inhibition of recombinant full-length mouse PI3K p110alpha/p85alpha E545K mutant assessed as residual activity at 10 uM using phosphatidylinositol-4, 5-bisphosphate as substrate measured after 40 mins by HTRF assay
[13] = biological target: Inhibitor of nuclear factor kappa-B kinase subunit beta (Homo sapiens) (UniProt O14920); experiment: Inhibition of recombinant full-length human IKKbeta assessed as residual activity at 10 uM using peptide substrate measured after 40 mins in presence of [gamma33P]ATP by scintillation counting method
[14] = biological target: Fibroblast growth factor receptor 4 (Homo sapiens) (UniProt P22455); experiment: Inhibition of recombinant human FGFR4 (442 to 755 residues) assessed as residual activity at 10 uM using poly(Glu, Tyr) 4:1 as substrate measured after 40 mins in presence of [gamma33P]ATP by scintillation counting method
[15] = biological target: Ephrin type-B receptor 3 (Homo sapiens) (UniProt P54753); experiment: Inhibition of recombinant human EphB3 (599 to 920 residues) assessed as residual activity at 10 uM using poly (Glu, Tyr) 4:1 as substrate measured after 40 mins in presence of [gamma33P]ATP by scintillation counting method
[16] = biological target: Tyrosine-protein kinase ABL1 (Homo sapiens) (UniProt P00519); experiment: Inhibition of recombinant human ABL (27 to end residues) assessed as residual activity at 10 uM using EAIYAAPFAKKK as substrate measured after 40 mins in presence of [gamma33P]ATP by scintillation counting method
[17] = biological target: CDK6/cyclin D3 (Homo sapiens) (UniProt P30281+Q00534); experiment: Inhibition of recombinant full-length human CDK6/cyclin D3 assessed as residual activity at 10 uM using histone H1 as substrate measured after 40 mins in presence of [gamma33P]ATP by scintillation counting method; assay type: protein-complex assay
[18] = biological target: Myotonin-protein kinase (Homo sapiens) (UniProt Q09013); experiment: Inhibition of recombinant human DMPK (1 to 549 residues) assessed as residual activity at 10 uM using KKSRGDYMTMQIG as substrate measured after 40 mins in presence of [gamma33P]ATP by scintillation counting method
[19] = biological target: MAPK/MAK/MRK overlapping kinase (Homo sapiens) (UniProt Q9UQ07); experiment: Inhibition of recombinant human MOK (1 to 343 residues) assessed as residual activity at 10 uM using RSRSRSRSRSRSRSR as substrate measured after 40 mins in presence of [gamma33P]ATP by scintillation counting method
[20] = biological target: PAS domain-containing serine/threonine-protein kinase (Homo sapiens) (UniProt Q96RG2); experiment: Inhibition of recombinant human PASK (995 to end residues) assessed as residual activity at 10 uM using KKLNRTLSFAEPG as substrate measured after 40 mins in presence of [gamma33P]ATP by scintillation counting method
[21] = biological target: Tyrosine-protein kinase FRK (Homo sapiens) (UniProt P42685); experiment: Inhibition of human PTK5 (218 to end residues) using GGEEEEYFELVKKKK as substrate measured after 40 mins in presence of [gamma33P]ATP by scintillation counting method; set-up: scale not given: the % may be the effect or the level left
[22] = biological target: SRSF protein kinase 1 (Homo sapiens) (UniProt Q96SB4); experiment: Inhibition of human SRPK1 (2 to end residues) using RSRSRSRSRSRSRSR as substrate measured after 40 mins in presence of [gamma33P]ATP by scintillation counting method; set-up: scale not given: the % may be the effect or the level left
[23] = biological target: Serine/threonine-protein kinase TBK1 (Homo sapiens) (UniProt Q9UHD2); experiment: Inhibition of recombinant full-length human TBK1 assessed as residual activity at 10 uM using KRRRALS(p)VASLPGL as substrate measured after 40 mins in presence of [gamma33P]ATP by scintillation counting method
[24] = organism: Homo sapiens; experiment: Inhibition of recombinant full-length human PI3K p110alpha/p65alpha (1 to 571 residues) assessed as residual activity at 10 uM using phosphatidylinositol-4, 5-bisphosphate as substrate measured after 40 mins by HTRF assay

Sequence of MAPK/MAK/MRK overlapping kinase (Homo sapiens) (Q9UQ07 whole entry, the tested form may be a part): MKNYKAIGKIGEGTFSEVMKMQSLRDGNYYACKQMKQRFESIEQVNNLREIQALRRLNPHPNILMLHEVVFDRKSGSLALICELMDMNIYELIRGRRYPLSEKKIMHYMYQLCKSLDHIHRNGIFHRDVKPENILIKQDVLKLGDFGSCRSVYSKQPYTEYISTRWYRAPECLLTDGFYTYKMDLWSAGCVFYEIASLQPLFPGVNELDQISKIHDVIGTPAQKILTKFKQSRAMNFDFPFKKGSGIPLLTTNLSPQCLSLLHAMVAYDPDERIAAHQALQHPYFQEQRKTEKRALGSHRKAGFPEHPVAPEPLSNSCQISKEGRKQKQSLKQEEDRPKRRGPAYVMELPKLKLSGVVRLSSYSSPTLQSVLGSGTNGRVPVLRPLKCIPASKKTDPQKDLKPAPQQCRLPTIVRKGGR
Sequence of Serine/threonine-protein kinase Nek1 (Homo sapiens) (Q96PY6 whole entry, the tested form may be a part): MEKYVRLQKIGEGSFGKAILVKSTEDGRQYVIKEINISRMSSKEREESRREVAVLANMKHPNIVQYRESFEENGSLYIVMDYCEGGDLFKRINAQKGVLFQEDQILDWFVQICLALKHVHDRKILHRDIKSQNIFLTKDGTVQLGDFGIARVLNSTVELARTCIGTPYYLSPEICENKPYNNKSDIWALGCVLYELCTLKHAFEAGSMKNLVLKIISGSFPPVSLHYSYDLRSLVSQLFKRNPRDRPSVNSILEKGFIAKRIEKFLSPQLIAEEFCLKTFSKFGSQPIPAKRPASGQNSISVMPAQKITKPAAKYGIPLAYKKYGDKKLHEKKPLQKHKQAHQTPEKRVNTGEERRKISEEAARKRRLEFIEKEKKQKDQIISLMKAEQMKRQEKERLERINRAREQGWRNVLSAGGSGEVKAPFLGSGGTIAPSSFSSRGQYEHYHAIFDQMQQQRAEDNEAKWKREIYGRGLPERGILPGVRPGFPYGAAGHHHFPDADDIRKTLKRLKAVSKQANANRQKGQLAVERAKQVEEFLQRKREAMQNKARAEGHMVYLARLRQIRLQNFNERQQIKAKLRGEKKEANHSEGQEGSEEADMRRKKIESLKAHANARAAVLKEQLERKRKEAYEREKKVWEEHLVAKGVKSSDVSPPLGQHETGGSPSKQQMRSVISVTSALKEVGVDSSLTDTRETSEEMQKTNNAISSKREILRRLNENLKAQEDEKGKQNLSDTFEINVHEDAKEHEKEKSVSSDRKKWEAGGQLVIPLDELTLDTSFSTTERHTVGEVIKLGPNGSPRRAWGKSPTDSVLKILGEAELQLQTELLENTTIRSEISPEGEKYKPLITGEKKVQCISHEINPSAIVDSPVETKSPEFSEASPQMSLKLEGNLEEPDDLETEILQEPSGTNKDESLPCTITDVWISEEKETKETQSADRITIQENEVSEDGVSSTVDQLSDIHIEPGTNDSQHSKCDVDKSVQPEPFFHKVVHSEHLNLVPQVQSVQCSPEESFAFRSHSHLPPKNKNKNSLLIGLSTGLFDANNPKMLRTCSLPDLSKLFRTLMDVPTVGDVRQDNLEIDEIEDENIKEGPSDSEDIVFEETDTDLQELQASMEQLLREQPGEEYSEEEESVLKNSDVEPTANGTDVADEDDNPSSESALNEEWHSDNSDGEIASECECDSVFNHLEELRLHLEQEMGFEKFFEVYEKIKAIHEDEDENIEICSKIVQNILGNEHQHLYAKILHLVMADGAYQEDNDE
Sequence of Myotonin-protein kinase (Homo sapiens) (Q09013 whole entry, the tested form may be a part): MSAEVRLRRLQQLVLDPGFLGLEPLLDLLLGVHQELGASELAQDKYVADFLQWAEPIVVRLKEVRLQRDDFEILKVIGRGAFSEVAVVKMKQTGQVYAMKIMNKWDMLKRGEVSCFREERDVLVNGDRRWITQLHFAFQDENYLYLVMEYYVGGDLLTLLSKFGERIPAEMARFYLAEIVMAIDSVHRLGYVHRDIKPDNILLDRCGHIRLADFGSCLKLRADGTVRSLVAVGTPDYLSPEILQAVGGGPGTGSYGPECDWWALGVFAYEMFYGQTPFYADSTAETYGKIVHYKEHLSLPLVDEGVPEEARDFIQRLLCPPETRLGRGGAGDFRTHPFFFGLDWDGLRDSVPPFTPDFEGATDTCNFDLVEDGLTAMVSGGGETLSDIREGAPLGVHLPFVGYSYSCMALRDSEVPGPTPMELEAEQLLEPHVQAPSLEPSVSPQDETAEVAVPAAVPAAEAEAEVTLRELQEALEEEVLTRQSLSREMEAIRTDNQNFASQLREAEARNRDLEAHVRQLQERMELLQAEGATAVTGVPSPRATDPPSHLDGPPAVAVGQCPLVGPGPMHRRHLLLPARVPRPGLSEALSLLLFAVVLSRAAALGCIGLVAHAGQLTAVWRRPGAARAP
Sequence of Tyrosine-protein kinase ABL1 (Homo sapiens) (P00519 whole entry): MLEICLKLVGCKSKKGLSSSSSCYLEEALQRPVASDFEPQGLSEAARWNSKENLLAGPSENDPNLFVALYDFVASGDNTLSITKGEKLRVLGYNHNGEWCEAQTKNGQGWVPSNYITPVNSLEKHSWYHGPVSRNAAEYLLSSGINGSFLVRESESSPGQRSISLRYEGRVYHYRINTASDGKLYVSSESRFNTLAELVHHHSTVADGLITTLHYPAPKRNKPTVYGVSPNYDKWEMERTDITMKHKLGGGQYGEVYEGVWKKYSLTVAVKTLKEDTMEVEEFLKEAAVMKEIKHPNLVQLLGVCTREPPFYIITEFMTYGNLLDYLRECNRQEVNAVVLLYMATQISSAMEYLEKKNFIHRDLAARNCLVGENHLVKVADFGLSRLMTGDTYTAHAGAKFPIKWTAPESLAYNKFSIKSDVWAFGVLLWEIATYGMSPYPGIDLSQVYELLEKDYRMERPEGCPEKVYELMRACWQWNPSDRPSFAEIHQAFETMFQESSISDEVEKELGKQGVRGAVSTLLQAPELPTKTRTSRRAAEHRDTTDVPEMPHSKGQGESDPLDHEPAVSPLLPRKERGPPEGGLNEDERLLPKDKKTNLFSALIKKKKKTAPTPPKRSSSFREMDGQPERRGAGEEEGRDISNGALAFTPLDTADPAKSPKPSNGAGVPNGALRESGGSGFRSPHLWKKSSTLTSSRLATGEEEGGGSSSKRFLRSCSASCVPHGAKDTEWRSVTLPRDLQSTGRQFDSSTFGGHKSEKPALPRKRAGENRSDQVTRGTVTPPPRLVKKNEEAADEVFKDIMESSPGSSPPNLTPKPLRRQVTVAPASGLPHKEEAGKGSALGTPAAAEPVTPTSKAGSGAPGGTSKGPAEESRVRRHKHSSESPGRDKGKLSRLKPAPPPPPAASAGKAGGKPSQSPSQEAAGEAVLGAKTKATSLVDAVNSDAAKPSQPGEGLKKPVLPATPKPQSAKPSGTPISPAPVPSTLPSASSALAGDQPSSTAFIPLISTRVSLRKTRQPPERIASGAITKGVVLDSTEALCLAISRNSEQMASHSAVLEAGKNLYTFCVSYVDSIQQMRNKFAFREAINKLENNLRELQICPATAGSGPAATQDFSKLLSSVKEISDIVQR
Sequence of Tyrosine-protein kinase FRK (Homo sapiens) (P42685 whole entry): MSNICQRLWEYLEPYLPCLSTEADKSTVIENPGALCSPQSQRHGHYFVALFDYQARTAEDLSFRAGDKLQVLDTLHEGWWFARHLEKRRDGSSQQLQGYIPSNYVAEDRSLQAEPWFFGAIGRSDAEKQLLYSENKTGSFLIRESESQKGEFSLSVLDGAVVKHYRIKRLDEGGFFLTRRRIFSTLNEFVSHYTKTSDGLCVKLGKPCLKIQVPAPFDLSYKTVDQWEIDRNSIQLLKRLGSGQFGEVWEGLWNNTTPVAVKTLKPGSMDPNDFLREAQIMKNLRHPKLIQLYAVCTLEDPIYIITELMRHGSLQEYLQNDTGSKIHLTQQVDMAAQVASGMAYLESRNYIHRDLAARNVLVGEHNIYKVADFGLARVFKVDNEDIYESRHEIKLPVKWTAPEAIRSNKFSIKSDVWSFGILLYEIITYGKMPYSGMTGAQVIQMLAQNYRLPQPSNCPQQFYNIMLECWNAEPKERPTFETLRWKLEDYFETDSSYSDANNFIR
Sequence of Tribbles homolog 2 (Homo sapiens) (Q92519 whole entry): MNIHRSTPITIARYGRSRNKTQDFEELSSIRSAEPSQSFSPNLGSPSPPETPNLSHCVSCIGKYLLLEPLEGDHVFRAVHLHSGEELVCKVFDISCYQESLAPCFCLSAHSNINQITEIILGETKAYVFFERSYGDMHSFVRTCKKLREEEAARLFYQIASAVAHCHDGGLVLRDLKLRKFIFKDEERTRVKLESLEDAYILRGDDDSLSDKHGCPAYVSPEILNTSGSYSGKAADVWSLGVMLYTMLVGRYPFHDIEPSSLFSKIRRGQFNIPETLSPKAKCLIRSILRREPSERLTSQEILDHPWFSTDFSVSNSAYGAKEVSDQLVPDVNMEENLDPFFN
Sequence of FKBP12A/mTOR (Homo sapiens) (P62942 2-108 limits assumed, other chains not shown): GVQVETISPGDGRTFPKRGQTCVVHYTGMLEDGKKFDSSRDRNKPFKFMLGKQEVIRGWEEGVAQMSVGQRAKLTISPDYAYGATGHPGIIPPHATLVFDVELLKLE
Sequence of Mitogen-activated protein kinase kinase kinase 2 (Homo sapiens) (Q9Y2U5 whole entry): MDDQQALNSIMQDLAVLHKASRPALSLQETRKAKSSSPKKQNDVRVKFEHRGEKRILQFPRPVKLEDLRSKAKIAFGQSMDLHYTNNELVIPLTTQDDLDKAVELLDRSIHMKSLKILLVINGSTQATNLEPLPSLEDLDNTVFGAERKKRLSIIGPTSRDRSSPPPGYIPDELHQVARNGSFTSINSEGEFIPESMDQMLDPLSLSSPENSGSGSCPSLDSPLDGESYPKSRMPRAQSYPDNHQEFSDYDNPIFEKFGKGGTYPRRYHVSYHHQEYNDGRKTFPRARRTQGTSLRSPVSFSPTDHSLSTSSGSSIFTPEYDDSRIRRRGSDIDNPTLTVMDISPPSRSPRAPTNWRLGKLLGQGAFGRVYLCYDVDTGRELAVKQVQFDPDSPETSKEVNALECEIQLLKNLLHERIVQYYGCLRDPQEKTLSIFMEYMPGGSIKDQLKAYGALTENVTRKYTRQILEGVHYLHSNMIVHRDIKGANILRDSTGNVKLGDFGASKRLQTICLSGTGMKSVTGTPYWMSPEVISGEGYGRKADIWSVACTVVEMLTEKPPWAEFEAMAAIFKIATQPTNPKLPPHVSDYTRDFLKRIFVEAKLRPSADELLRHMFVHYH

Molecule `Cc1cc(C)c(CNc2nc(Cl)nc3c2ncn3C2CCCC2)c(=O)[nH]1` has an inhibition at 0.05 µM [1] of 100%, an IC50 [2] of 45.5 nM and an Activity [3] of 90.5%. For the same molecule, the Activity [4] was 102%, the Activity [5] was 99.5% and the Activity [6] was 114%. It also gave an Activity [7] of 96.5%, an Activity [8] of 104% and an Activity [9] of 112%. It also gave an Activity [10] of 97.5%, an Activity [11] of 101% and an Activity [12] of 99%. It also gave an Activity [13] of 102%, an Activity [14] of 100% and an Activity [15] of 110%. The Activity [16] was 108%, the Activity [17] was 98.5% and the Activity [18] was 104%. It also gave an Activity [19] of 104%, an Activity [20] of 100% and an Activity [21] of 102%. For the same molecule, the Activity [22] was 101%, the Activity [23] was 99.5% and the Activity [24] was 93%.
